Where “and” joins values, the source holds several entries; their conditions need not be identical. Equal entries are not always repeated.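 Where inhibition never reached the appropriate level, the endpoint shown equals the highest concentration tested. Otherwise, values were interpolated linearly from a five-concentration, 48-hour dose response in 96-well plates. Abbreviation: GI50, concentration required for 50% inhibition of growth.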 Calls of active or inactive are those of the source. Cut-off read from the data, not from the text of the source: active = GI50 up to about 1.1 µM and inactive = higher. Bounds are passed on as bounds.

Holding throughout (assay): DTP human tumour cell line panel, 48 h
Test [1] deals with U-251.
Test [2] relates to ACHN.
In test [3] the test system is SN12C.
Test [4] concerns SW-620.
The subject of test [5] is RXF 393.
For test [6], the system named is SR.
The test system of test [7] is SF-295.
Test [8] relates to HOP-92.
Test [9] relates to DU-145.
For test [10], the system named is UO-31.
The subject of test [11] is NCI/ADR-RES.
The subject of test [12] is HL-60.
For test [13], the system named is HCT-15.
In test [14] the test system is Malme-3M.
Test [15] deals with OVCAR-3.
Test [16] relates to SK-MEL-5.
Test [17] concerns PC-3.
Test [18] relates to KM12.
Test [19] concerns A498.
For test [20], the system named is UACC-62.

In the case of `COc1ccc(/C=C2/N/C(=N\N=C/C(O)C(O)C(O)CO)NC2=O)cc1` (stereo not drawn), the GI50 was > 100 µM (inactive) and 84.7 µM (inactive) in test [1]; > 100 µM (inactive) and 89.5 µM (inactive) in test [2]; > 100 µM (inactive) in test [3]; > 100 µM (inactive) and 77.8 µM (inactive) in test [4]; > 100 µM (inactive) in test [5]; > 100 µM (inactive) in [6]. The GI50 in test [7] is > 100 µM (inactive); in [8] it was 48.3 µM (inactive) and 42.6 µM (inactive); in test [9], > 100 µM (inactive) and 71.3 µM (inactive); in test [10], > 100 µM (inactive); in test [11], > 100 µM (inactive); in [12], > 100 µM (inactive). Also, the GI50 in test [13] is more than 100 µM; in test [14], > 100 µM (inactive).

On to `COC(=O)C1(C(=O)OC)CC2=C(S(=O)(=O)c3ccccc3)C[C@@H](C#N)[C@H]2C1`, for which the GI50 in test [1] was > 100 µM (inactive); in test [2] it was > 100 µM (inactive); in test [15], 25.2 µM (inactive); in test [16], > 100 µM (inactive); in [3], > 100 µM (inactive); in [4], > 100 µM (inactive). In addition, the GI50 in test [7] was > 100 µM (inactive); in test [8], 28.9 µM (inactive); in [9], > 100 µM (inactive); in test [17], > 100 µM (inactive); in test [10], > 100 µM (inactive); in test [11] it was > 100 µM (inactive). The GI50 in test [12] is > 100 µM (inactive); in [18], > 100 µM (inactive); in test [13], 37.9 µM; in test [19] it was > 100 µM (inactive); in test [14], > 100 µM (inactive).

As to `O=[N+]([O-])c1ccc(/C=N/n2c(CO)nc3ccccc32)o1`, the GI50 in test [1] is 13.9 µM (inactive); in test [2], 4.25 µM (inactive); in [15], 2.22 µM (inactive); in test [16] it was 2.14 µM (inactive); in test [3] it was 5.35 µM (inactive); in test [4], 5.71 µM (inactive). The GI50 in test [5] is 5.07 µM (inactive); in test [7], 11.7 µM (inactive); in test [8], 3.51 µM (inactive); in [9], 3.27 µM (inactive); in test [17], 10.2 µM (inactive); in [10], 8.32 µM (inactive). The GI50 in [11] was 15.7 µM (inactive); in test [12], 2.3 µM (inactive); in test [18] it was 3.11 µM (inactive); in test [13] it was 2.84 µM; in test [19] it was 17.9 µM (inactive); in test [14], 2.16 µM (inactive). Also, in [20], the GI50 was 7.52 µM (inactive).

As to `COc1ccc(C(F)(F)F)cc1NC(=O)O/N=C(/Cl)C(C)C`, the GI50 in [1] is 26.4 µM (inactive); in test [2] it was 10.5 µM (inactive); in test [15] it was 19.3 µM (inactive); in [16], 10.7 µM (inactive); in test [3], 16.2 µM (inactive); in test [4], 3.33 µM (inactive). Also, the GI50 in [5] is 19.6 µM (inactive); in [7] it was > 47.1 µM (inactive); in test [8] it was 7.33 µM (inactive); in [9], 19.2 µM (inactive); in [17], 18.8 µM (inactive); in test [10], 18.5 µM (inactive). In addition, the GI50 is 23.6 µM (inactive) in [11]; 2.76 µM (inactive) in test [12]; 26.3 µM (inactive) in test [18]; 5.18 µM in test [13]; 28.9 µM (inactive) in [19]; 9.62 µM (inactive) in test [14]. Also, the GI50 in [20] is 18.5 µM (inactive).

On to `CC(=O)c1cccc(NC2C(N)C(NC(=O)N(C)C)(C(C)O)C(C)(O)C2(O)COC(=O)c2c(C)cccc2O)c1` (stereo not drawn), for which the GI50 is < 0.001 µM (active) in test [1]; < 0.001 µM (active) in test [2]; 0.01 µM (active) in test [15]; < 0.001 µM (active) in test [16]; < 0.001 µM (active) in test [3]; < 0.001 µM (active) in [4]. For the same compound, the GI50 was < 0.001 µM (active) in test [5]; < 0.001 µM (active) in [6]; 0.00107 µM (active) in test [7]; < 0.001 µM (active) in test [8]; < 0.001 µM (active) in [9]; 0.00191 µM (active) in test [10]. The concentration for 50% growth inhibition (GI50) is 0.0134 µM (active) in test [11]; < 0.001 µM (active) in test [12]; < 0.001 µM (active) in test [18]; 0.00296 µM in [13]; < 0.001 µM (active) in [19]; < 0.001 µM (active) in test [14]. In addition, the GI50 in test [20] was 0.01 µM (active).

Turning to `O=C1CC(c2ccc(O)cc2)C2(O1)C(=O)OC(C(O)CO)C2O` (stereo not drawn), the GI50 in test [1], in test [2], in test [15], in [16], in test [3] and in test [4] was > 100 µM (inactive) in each case. In addition, the GI50 in test [5], in [7], in test [9], in test [17], in test [10] and in test [11] was > 100 µM (inactive) each time. Besides, the GI50 in test [12] was > 100 µM (inactive); in test [18], > 100 µM (inactive); in test [13] it was more than 100 µM; in [19], > 100 µM (inactive); in test [14], 96.2 µM (inactive); in test [20], > 100 µM (inactive).

As to `CN(C)CCS/C(=N\c1ccccc1)N1C=COC=C1`, the GI50 in test [1] was 48 µM (inactive); in test [2], 34.1 µM (inactive); in [15], 46 µM (inactive); in test [16], 19.5 µM (inactive); in test [3], 27.5 µM (inactive); in [4] it was 21.4 µM (inactive). The GI50 in test [5] was 26.7 µM (inactive); in test [6] it was 68.9 µM (inactive); in [7], 99.8 µM (inactive); in test [8], 26.2 µM (inactive); in [9] it was 75.9 µM (inactive); in test [17] it was 34.4 µM (inactive). The GI50 was 57.3 µM (inactive) in [10]; > 77.6 µM (inactive) in [12]; 57.4 µM (inactive) in [18]; 20.5 µM in test [13]; > 100 µM (inactive) in test [19]; 33.7 µM (inactive) in test [14]. The GI50 in test [20] is 16 µM (inactive).

On to `C[C@@H](CC(=O)O)OC1OC(COC(=O)C(C)(C)C)C(OC(=O)C(C)(C)C)C(OC(=O)C(C)(C)C)C1OC(=O)C(C)(C)C` (stereo partly drawn), for which the GI50 in test [1] was 40 µM (inactive); in test [2], 22.6 µM (inactive); in [15], 64.7 µM (inactive); in test [16] it was 29.6 µM (inactive); in test [3], 48.2 µM (inactive); in test [4], 45.4 µM (inactive). Also, the GI50 was 45.3 µM (inactive) in test [5]; 50.5 µM (inactive) in test [7]; 38.1 µM (inactive) in test [8]; 59.6 µM (inactive) in test [9]; 46.9 µM (inactive) in test [17]; > 10 µM (inactive) in test [10]. The GI50 in test [11] was > 100 µM (inactive); in [12], 21.9 µM (inactive); in test [18], 45.7 µM (inactive); in test [13], 32.4 µM; in [19], > 100 µM (inactive); in test [20] it was 71.9 µM (inactive).

For the compound `CCOC(=O)/C(C(=O)Nc1ccc(F)cc1)=C(/N)N1CCOCC1`, the GI50 in test [1], in test [2], in test [15], in test [3], in test [4] and in test [5] was > 100 µM (inactive) throughout. Besides, the GI50 in test [7], in [9], in test [17], in test [11], in [12] and in [18] was > 100 µM (inactive) throughout. In addition, the 50% growth inhibitory concentration (GI50) was more than 100 µM in test [13], > 100 µM (inactive) in [19], > 100 µM (inactive) in [14] and > 100 µM (inactive) in test [20].

Consider `CC(=O)Oc1ccc2cc(Oc3cc(Cl)c(Cl)cc3Cl)c(=O)oc2c1`, for which the GI50 is 15.6 µM (inactive) in test [1]; 22.9 µM (inactive) in [2]; 16 µM (inactive) in test [15]; 11.9 µM (inactive) in test [16]; 14.6 µM (inactive) in test [3]; 14.8 µM (inactive) in [4]. For the same compound, the GI50 is 14.6 µM (inactive) in test [5]; 19.8 µM (inactive) in test [6]; 22.4 µM (inactive) in test [7]; 17.8 µM (inactive) in [8]; 25.3 µM (inactive) in test [9]; 16.1 µM (inactive) in test [17]. Besides, the GI50 was 13.1 µM (inactive) in test [10]; 22.7 µM (inactive) in [12]; 13 µM (inactive) in test [18]; 13.1 µM in [13]; 17.7 µM (inactive) in [19]; 15.3 µM (inactive) in test [14].

Consider `O=NC1c2cccc3cccc(c23)C1N=O` (stereo not drawn), for which the GI50 in test [1] is 3.1 µM (inactive); in test [2], 1.72 µM (inactive); in test [15], 2.69 µM (inactive); in [16] it was 14 µM (inactive); in [4], 2.45 µM (inactive); in test [5], 3.51 µM (inactive). Also, the GI50 in test [7] is 9.31 µM (inactive); in [8], 7.11 µM (inactive); in [9] it was 11.1 µM (inactive); in [17], 10.1 µM (inactive); in test [10], 2.76 µM (inactive); in [11] it was 2.39 µM (inactive). Further, the GI50 in [12] is 2.5 µM (inactive); in test [18] it was 3.89 µM (inactive); in test [13] it was 1.79 µM; in [19], 17.5 µM (inactive).

By GI50 is commonly meant the concentration that inhibits growth by half.

The record behind these values is ChEMBL document CHEMBL1201862, “PubChem BioAssay data set” (2004).
